Data reported in ChEMBL document CHEMBL6103623, “Phenolics and Phenolic Glycosides from Wrightia pubescens and Their Hepatoprotective Activities” (J Nat Prod, 2025).
Active and inactive are the calls of the source. The rule behind the calls is not given here.

Key:
HepG2 [1] = assay: Cytotoxicity against human HepG2 cells assessed as reduction in cell viability at 100 uM incubated for 48 hrs by MTT assay; type: toxicity, cell-based; conditions: hepg2, 48 h
HepG2 [2] = assay: Hepatoprotective activity against APAP-induced cell injury in human HepG2 cells assessed as reduction in AST level at 6.25 to 25 uM preincubated for 24 hrs followed by APAP addition and measured after 24 hrs; type: functional, cell-based; conditions: dose 6.25-25 µM, time 48.0 hrs
HepG2 [3] = assay: Hepatoprotective activity against APAP-induced cell injury in human HepG2 cells assessed as increase in survival rate preincubated for 24 hrs followed by APAP addition and measured after 24 hrs by MTT assay; type: functional, cell-based; conditions: dose 6.25-25 µM, time 48.0 hrs
HepG2 [4] = assay: Hepatoprotective activity against APAP-induced cell injury in human HepG2 cells assessed as reduction in ALT level at 6.25 to 25 uM preincubated for 24 hrs followed by APAP addition and measured after 24 hrs; type: functional, cell-based; conditions: dose 6.25-25 µM, time 48.0 hrs
HepG2 [5] = assay: Hepatoprotective activity against APAP-induced human HepG2 cell apoptosis assessed as necrotic cells at 25 uM incubated for 24 hrs in presence of APAP by Annexin V-FITC/PI staining based flow cytometry (reference value: 0.49%); type: functional
HepG2 [6] = assay: Hepatoprotective activity in human HepG2 cells assessed as restoration of APAP-induced inhibition of Bcl-2 expression preincubated for 24 hrs followed by APAP addition and measured after 24 hrs by Western blot analysis; type: functional, cell-based; conditions: dose 6.25-25 µM, time 48.0 hrs
HepG2 [7] = assay: Hepatoprotective activity against APAP-induced human HepG2 cell apoptosis assessed as viable cells at 25 uM incubated for 24 hrs in presence of APAP by Annexin V-FITC/PI staining based flow cytometry (Rvb=62.69%); type: functional; conditions: read-out: Activity
HepG2 [8] = assay: Hepatoprotective activity against APAP-induced cell injury in human HepG2 cells assessed as increase in GPX4 expression at 6.25 to 25 uM preincubated for 24 hrs followed by APAP addition and measured after 24 hrs by Western blot analysis; type: functional, cell-based; conditions: dose 6.25-25 µM, time 48.0 hrs
HepG2 [9] = assay: Hepatoprotective activity against APAP-induced cell injury in human HepG2 cells assessed as increase in Nrf2 expression at 6.25 to 25 uM preincubated for 24 hrs followed by APAP addition and measured after 24 hrs by Western blot analysis; type: functional, cell-based; conditions: dose 6.25-25 µM, time 48.0 hrs
HepG2 [10] = assay: Hepatoprotective activity in human HepG2 cells assessed as reduction in APAP-induced increased in ROS level at 25 uM measured after 24 hrs in presence of APAP by DCF staining based flow cytometry; type: functional, cell-based
HepG2 [11] = assay: Hepatoprotective activity against APAP-induced cell injury in human HepG2 cells assessed as increase in GSH-Px activity at 6.25 to 25 uM preincubated for 24 hrs followed by APAP addition and measured after 24 hrs; type: functional, cell-based; conditions: dose 6.25-25 µM, time 48.0 hrs
HepG2 [12] = assay: Hepatoprotective activity against APAP-induced cell injury in human HepG2 cells assessed as increase in HO-1 expression at 6.25 to 25 uM preincubated for 24 hrs followed by APAP addition and measured after 24 hrs by Western blot analysis; type: functional, cell-based; conditions: dose 6.25-25 µM, time 48.0 hrs
HepG2 [13] = assay: Hepatoprotective activity against APAP-induced human HepG2 cell apoptosis assessed as early apoptotic cells at 25 uM incubated for 24 hrs in presence of APAP by Annexin V-FITC/PI staining based flow cytometry (reference value: 25.81%); type: functional
HepG2 [14] = assay: Hepatoprotective activity in human HepG2 cells assessed as inhibition of APAP-induced increase in Bax expression preincubated for 24 hrs followed by APAP addition and measured after 24 hrs by Western blot analysis; type: functional, cell-based; conditions: dose 6.25-25 µM, time 48.0 hrs
HepG2 [15] = assay: Hepatoprotective activity against APAP-induced human HepG2 cell apoptosis assessed as late apoptotic cells at 25 uM incubated for 24 hrs in presence of APAP by Annexin V-FITC/PI staining based flow cytometry (reference value: 11.01%); type: functional
HepG2 [16] = assay: Hepatoprotective activity against APAP-induced cell injury in human HepG2 cells assessed as reduction in AST level at 10 uM preincubated for 24 hrs followed by APAP addition and measured after 24 hrs; type: functional, cell-based; conditions: time 48.0 hrs
HepG2 [17] = assay: Hepatoprotective activity against APAP-induced cell injury in human HepG2 cells assessed as reduction in ALT level at 10 uM preincubated for 24 hrs followed by APAP addition and measured after 24 hrs; type: functional, cell-based; conditions: time 48.0 hrs

SMILES | Activity (HepG2 [1]) | Activity (HepG2 [2]) | Activity (HepG2 [3]) | Activity (HepG2 [4]) | further results
COc1cc(C(=O)OC[C@H]2O[C@@H](Oc3cc(OC)c(OC)c(OC)c3)[C@H](O)[C@@H](O)[C@@H]2O)ccc1O | Non-toxic | Active; Significant Effect Observed | Dose-dependent-effect | Active; Significant Effect Observed | 
COc1cc(O[C@@H]2O[C@H](CO)[C@@H](O)[C@H](O)[C@H]2O[C@@H]2OC[C@](O)(COC(=O)c3ccc(O)c(OC)c3)[C@H]2O)ccc1O | Non-toxic | Active; Significant Effect Observed | Dose-dependent-effect | Active; Significant Effect Observed | 
COc1cc(O[C@@H]2O[C@H](COC(=O)c3cc(OC)c(O)c(OC)c3)[C@@H](O[C@@H]3O[C@H](CO)[C@@H](O)[C@H](O)[C@H]3O)[C@H](O)[C@H]2O)ccc1O | Non-toxic | Active; Significant Effect Observed | Dose-dependent-effect | Active; Significant Effect Observed | 
CCCCO[C@@H]1OC[C@](O)(COC(=O)c2ccc(O)c(OC)c2)[C@H]1O | Non-toxic | Active; Significant Effect Observed | Dose-dependent-effect | Active; Significant Effect Observed | 
COc1cc(O[C@@H]2O[C@H](COC(=O)c3ccc(O)c(OC)c3)[C@@H](O[C@@H]3O[C@H](CO)[C@@H](O)[C@H](O)[C@H]3O)[C@H](O)[C@H]2O)ccc1O | Non-toxic | Active; Significant Effect Observed | Dose-dependent-effect | Active; Significant Effect Observed | Activity (HepG2 [5]): 0.9%; Activity (HepG2 [6]): Dose-dependent-effect; Significant Effect Observed; viability at 25 µM (HepG2 [7]): 69.2%; Activity (HepG2 [8]): Active; Activity (HepG2 [9]): Active; Activity (HepG2 [10]): Active; Activity (HepG2 [11]): Active; Activity (HepG2 [12]): Active; Activity (HepG2 [13]): 20.51%; inhibition (HepG2 [14]): Dose-dependent-effect; Significant Effect Observed; Activity (HepG2 [15]): 9.43%
COc1cc([C@@H]2Oc3cc([C@H]4Oc5cc(O)cc(O)c5C(=O)[C@@H]4O)ccc3O[C@H]2CO)ccc1O |  |  |  |  | Activity (HepG2 [16]): Active; Activity (HepG2 [17]): Active
COc1cc(CO)ccc1O[C@@H]1O[C@H](COC(=O)c2cc(OC)c(O)c(OC)c2)[C@@H](O[C@@H]2O[C@H](CO)[C@@H](O)[C@H](O)[C@H]2O)[C@H](O)[C@H]1O | Non-toxic | Active; Significant Effect Observed | Dose-dependent-effect | Active; Significant Effect Observed | 
CCCCO[C@H]1OC[C@](O)(COC(=O)c2ccc(O)c(OC)c2)[C@H]1O | Non-toxic | Active; Significant Effect Observed | Dose-dependent-effect | Active; Significant Effect Observed | 
